{
  "source": "patent EP4793274A1",
  "about": "“SALT AND CRYSTAL FORM OF KIF18A INHIBITOR COMPOUND, PREPARATION METHOD THEREFOR AND USE THEREOF” (Hubei Bio-Pharmaceutical Industrial Technological Institute …, priority 2023, dated 2025)",
  "key": {"[1]": {"target": "T1, recombinant protein KIF18A (kinesin domain: aa 1-467) (Homo sapiens, UniProt Q8NI77)", "T1 construct": "KIF18A (kinesin domain: aa 1-467); made in house; host or cells: Bac-to-Bac baculovirus expression system (Invitrogen)", "T1 sequence (Q8NI77 1-467)": "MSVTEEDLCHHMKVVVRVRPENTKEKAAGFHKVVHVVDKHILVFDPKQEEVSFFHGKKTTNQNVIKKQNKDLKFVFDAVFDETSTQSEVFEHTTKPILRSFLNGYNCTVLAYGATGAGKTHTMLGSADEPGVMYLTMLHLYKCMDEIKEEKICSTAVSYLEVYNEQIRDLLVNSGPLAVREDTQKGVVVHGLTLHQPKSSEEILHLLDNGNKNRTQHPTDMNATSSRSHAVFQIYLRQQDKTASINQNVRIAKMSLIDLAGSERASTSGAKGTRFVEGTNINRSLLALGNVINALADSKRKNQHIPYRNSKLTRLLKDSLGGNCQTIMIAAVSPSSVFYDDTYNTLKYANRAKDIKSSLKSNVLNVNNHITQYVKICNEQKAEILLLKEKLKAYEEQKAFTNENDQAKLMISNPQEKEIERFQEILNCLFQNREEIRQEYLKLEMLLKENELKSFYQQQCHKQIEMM", "experiment": "Inhibition of KIF18A enzymatic activity (ADP-Glo kinase assay kit)", "format": "biochemical", "settings": "KIF18A 80 nM, ATP 80 µM, 3 h at room temperature, luminescence", "excerpt": "The recombinant protein KIF18A (kinesin domain: aa 1-467) used in this assay was expressed by the Bac-to-Bac baculovirus expression system from Invitrogen, and the resulting protein was purified for use in this assay (Seki, M. et al. 2003 Nucleic Acids Res.). Quantitative detection of KIF18A enzymatic activity was completed using an ADP-Glo™ kinase assay kit (Promega Inc). Related procedures strictly followed the product instructions, which are briefly described as follows: The reaction system consisted of a test compound, the recombinant protein KIF18A (aa 1-467), ATP (Promega Inc), and an assay buffer. The test compound was prepared into a 0.5 mM stock solution using DMSO (Sigma Inc) and then serially diluted in DMSO. The assay buffer consisted of an aqueous solution of 15 mM Tris, 10 mM MgCl2 (Sigma Inc), 0.01% Pluronic F-68 (Life Technologies Inc), 1 µM paclitaxel (Cytoskeleton Inc), 30 µg/mL porcine tubulin (Cytoskeleton Inc), and 2% DMSO. […] After all reactions were completed, the luminescence values of the wells were read on a microplate reader (Molecular Device_SpectraMax Id5), and the inhibition ratios were calculated. […] Then, based on the inhibition rates at different compound concentrations, the IC50 value of the test compound was calculated using the GraphPad Prism 8 software."}, "NIH:OVCAR-3 cells": {"system": "NIH:OVCAR-3 cells", "experiment": "Inhibition of OVCAR3 tumor cell proliferation (CellTiter-Glo)", "format": "cell-based", "settings": "Homo sapiens, OVCAR-3, 72 h, 3 days drug treatment", "procedure": "NIH:OVCAR-3 cells (ATCC, Cat No. HTB-161, purchased from Co-Bier) were seeded into a T75 culture flask and cultured in an RPMI 1640 medium containing 20% FBS for 3 days in preparation for subsequent culturing and seeding into a 96-well plate for the cell proliferation assay. The OVCAR3 cells were seeded at a density of 3000 cells/100 µL/well into the 96-well cell plate, and then the plate was incubated in an incubator (37 °C, 5% CO2) for 18 h. On the second day, drug treatment was started. Serially diluted test compound solutions (each drug starting at a concentration of 10 µM, diluted in DMSO, with a dilution ratio of 1:3, and nine gradient points for each drug) or DMSO (negative control) was added to the medium in the plate at 100 µL/well, and a blank group was set up with only medium, but no seeded cell strains. After the drug addition, the plate was incubated in the incubator for another 3 days (37 °C, 5% CO2). On the fourth day, plate detection was performed. To each well, 100 µL of CellTiter-Glo reagent (Promega G9243) was added. The plate was shaken for 5 min and then left to stand at room temperature for 5 min. The chemical luminescence signal value of each well was determined using a microplate reader (PerkinElmer EnVision®2104). […] Then, the IC50 value of the test compound was calculated using the GraphPad Prism 8 software."}, "pKa of the compound": {"experiment": "pKa of the compound", "format": "physicochemical", "settings": "basic group"}},
  "data": [
    {"smiles": "Cc1cc(-c2cnn(-c3ccc(NS(=O)(=O)CCO)cc3N3CCC4(CC3)CC4)c2)nc(N2CCC(F)(F)CC2)n1", "note": "[compound of formula I, N-(4-(4-(2-(4,4-difluoropiperidin-1-yl)-6-methylpyrimidin-4-yl)-1H-pyrazol-1-yl)-3-(6-azaspiro[2.5]octan-6-yl)phenyl)-2-hydroxyethane-1-sulfonamide]", "values": [
      {"measurement": "IC50", "setting": "[1]", "result": 11, "unit": "nM"},
      {"measurement": "IC50", "setting": "NIH:OVCAR-3 cells", "result": 96, "unit": "nM"},
      {"measurement": "pKa", "setting": "pKa of the compound", "result": 4.5}
    ]}
  ]
}
